Laboratory results published in patent US20180338922A1, “FIXED DOSE FORMULATIONS” (Esperion Therapeutics, Inc., priority 2017, published 2018).
Entries after “also recorded” stand apart in the source; their conditions may differ. Like-named read-outs stand apart in the source and are kept apart here. One block for each compound: values may come before it.

Experiments:
[1] = Drug-drug compatibility study (HPLC, binary mixture 1:18 ezetimibe:bempedoic acid, solid state); assay type: physicochemical; settings: for Assay (Bempedoic Acid): in % (unit assumed)
Method: The fixed dose combination product under development is a novel combination of two drug substances and therefore determination of compatibility of the actives with each other was considered to be critical. The compatibility of the actives was assessed through HPLC analysis of binary mixtures of the drug substances at a ratio 1:18 (ezetimibe:bempedoic acid) in the solid state. Samples were stored at 60° C. and 40° C./75% RH in both open and closed containers for 2 weeks and 4 weeks respectively. Degradation products were evaluated for open (stressed) samples of accelerated condition (40° C./75% RH) and 60° C. Assay for the samples was also carried out.

[2] = Log partition coefficient (log p); assay type: physicochemical
[3] = Flowability of the APIs (compressibility index, Hausner's ratio); assay type: physicochemical; settings: drug substance
[4] = pKa by potentiometric titration; assay type: physicochemical; settings: determined by potentiometric titration
[5] = Multimedia dissolution of Bempedoic acid tablets (USP Apparatus-II, 50 rpm, 900 mL); assay type: physicochemical; settings: QC medium (phosphate buffer, pH 6.8); in 20 minutes
Method: Dissolution characterization was performed in accordance with the dissolution method detailed in IND #106,654. The dissolution conditions were 900 mL phosphate buffer, pH 6.8, using Apparatus-II at 50 rpm.

[6] = Forced degradation of bempedoic acid; assay type: physicochemical
Method: Forced degradation of bempedoic acid was carried out to study the impurity profile, degradation pathway, and to facilitate the development of a stability-indicating method. In addition, knowledge obtained from the forced degradation studies was used during formulation and process design and development to prevent impurities from being generated. The specified stress conditions were intended to achieve 5-20% degradation. The stressed samples were compared to the unstressed sample (control).

[7] = cited from earlier work
[8] = QC dissolution of ezetimibe component (0.45% SLS in 0.05 M acetate buffer pH 4.5, Apparatus-II, 50 rpm, 500 mL); assay type: physicochemical; settings: QC dissolution medium, within 15 minutes
Method: Drug release profiles for both actives were estimated using common chromatographic conditions with different injection volumes.
The goal of Formulation Development Study #2 was to optimize the concentration of binder used for the granulation of ezetimibe. Wet granulation was used for the preparation of ezetimibe granules. Binder solution, povidone with SLS, and ezetimibe were used for the granulation of dry-mix powder blend. One trial with a higher concentration of povidone (3 mg/tablet) and another with a lower concentration (1 mg/tablet) were performed to observe the impact of binder concentration on dissolution. Ezetimibe granules were mixed with Bempedoic acid granules separately and compressed into a monolayer tablet for both trials.
Dissolution Profile of FDC test product (ezetimibe component) in QC media is given in Table 52, Table 53, FIG. 15, and FIG. 16.

[9] = Drug substance attributes (solubility, permeability, BCS class, hygroscopicity); assay type: physicochemical
[10] = Forced degradation of ezetimibe; assay type: physicochemical
[11] = 18.48 mg of solid in Sun cabinet 765 W/m2 at 35° C. for 24 hrs
[12] = 21.41 mg of solid + Heating at 80° C. for 24 hrs
[13] = 5.0 mL stock solution + Heating at 80° C. for 30 min
[14] = 5.0 mL stock solution in Sun cabinet 765 W/m2 at 35° C. for 15 hrs

- Assay (Bempedoic Acid) ([1]; 2W 60°): 100.2
- Assay (Bempedoic Acid) ([1]; 4W 40° C./75% RH Open): 103.7
- unspecified impurity ([1]; Initial, 2W 60°, 4W 40° C./75%): No unspecified impurity generated
- Assay (Bempedoic Acid) ([1]; Initial): 101.7
- logP ([2]; octanol/pH 3.5 buffer, pH 3.5): 4.38
- logP ([2]; octanol/water): 4.33
- Hausner's ratio [3]: 1.48
- compressibility index [3]: 32.6%
- pKa [4]: 4.88
- pKa ([4]; second value): 5.6
- drug released [5]: more than 85%
- Assay ([6]; Non stressed bempedoic acid): 99.0%
- Assay ([6]; Photo, solid state): 99.2%
- Assay ([6]; Thermal, solid state 105° C.): 95.8%
- Assay ([6]; Thermal, solution 105 C): 97.7%
- stability in the stress test study ([6]; all studied stress conditions): stable at all studied conditions
- Assay ([6]; exposed to H2O2): 100.4%
- Assay ([6]; exposed to HCl): 98.7%
- Assay ([6]; exposed to NaOH, differs from expected ~100% due to non-quantitative neutralization prior to injection (footnote 2)): 117.3(2) %
Compound: CC(C)(CCCCCC(O)CCCCCC(C)(C)C(=O)O)C(=O)O [Bempedoic acid, 8-hydroxy-2,2,14,14-tetramethylpentadecanedioic acid]
- aqueous solubility [7]: pH dependent
- aqueous solubility ([7]; listed as Bempedoic acid (ETC-1002)): poorly soluble in water

- drug release (ezetimibe) [8]: more than 85%
- Assay (EZT) ([1]; 2W 60°): 97.6%
- EZT 21 (Keto impurity) ([1]; 2W 60°): 0.04
- EZT cyclic ether ([1]; 2W 60°): 0.12%
- SMUI ([1]; 2W 60°): 0.17%
- Total impurities ([1]; 2W 60°): 0.33%
- Assay (EZT) ([1]; 4W 40° C./75% RH Open): 99.5%
- EZT 21 (Keto impurity) ([1]; 4W 40° C./75% RH Open): 0.38
- EZT cyclic ether ([1]; 4W 40° C./75% RH Open): 0.9%
- SMUI ([1]; 4W 40° C./75% RH Open): 0.19%
- Total impurities ([1]; 4W 40° C./75% RH Open): 2.34%
- Assay (EZT) ([1]; Initial): 99.3%
- EZT 21 (Keto impurity) ([1]; Initial): 0.03
- SMUI ([1]; Initial): 0.03%
- Total impurities ([1]; Initial): 0.06%
- logP ([2]; n-octanol/pH 7 aqueous phase, n-octanol: pH 7): 4.51
- logP ([2]; pH 1, n-octanol: 0.1N HCl): 4.52
- Solubility [9]: low solubility
- Hausner's ratio [3]: 1.42
- compressibility index [3]: 29.60%
- % Degradation, Total (unspecified and specified) [10, 11]: 0.22%
- Assay [10, 11]: 98.0%
- % Degradation, Total (unspecified and specified) [10, 12]: 0.14%
- Assay [10, 12]: 96.3%
- Assay ([10]; 5.0 mL stock solution + 0.1 mL 1N NaOH at RT for 30 min): 83.1%
- Assay ([10]; 5.0 mL stock solution + 1 mL 1N HCl at RT for 24 hrs): 97.9%
- Assay ([10]; 5.0 mL stock solution + 1 mL H2O2 30% at RT for 24 hrs): 97.0%
- % Degradation, Total (unspecified and specified) [10, 13]: 5.67%
- Assay [10, 13]: 93.1%
- % Degradation, Total (unspecified and specified) [10, 14]: 1.57%
- Assay [10, 14]: 95.0%
- % Degradation, Total (unspecified and specified) ([10]; Non stressed ezetimibe): 0.12%
- Assay ([10]; Non stressed ezetimibe): 100.0%
- stability classification from forced degradation ([10]; exposure to alkali (NaOH) and peroxide (H2O2)): sensitive to alkali and peroxide
- stability in the solid form ([10]; heat and photo irradiation, solid form): stable to heat and photo irradiation
- pKa [4]: 9.75
Compound: O=C1[C@H](CC[C@H](O)c2ccc(F)cc2)[C@@H](c2ccc(O)cc2)N1c1ccc(F)cc1 [Ezetimibe, (3R,4S)-1-(4-fluorophenyl)-3-[(3S)-3-(4-fluorophenyl)-3-hydroxypropyl]-4-(4-hydroxyphenyl) azetidin-2-one]
- BCS class [9]: Ezetimibe is BCS class II compounds having low
- aqueous solubility [7]: insoluble in aqueous media at all pH; also recorded: poorly soluble in water
